In brackets after ≈: the same amount, converted by molar mass. Activity calls are given as the source filed them. The calls are words filed in the database; no cut-off is given here.
Legend:
Escherichia coli [1] = assay: Antimicrobial activity against Escherichia coli ATCC 11229 after 24 hrs by MTT assay; format: functional; conditions: ATCC 11229, 24 h
Staphylococcus aureus [2] = assay: Antimicrobial activity against Staphylococcus aureus ATCC 6538 after 24 hrs by MTT assay; format: functional; conditions: ATCC 6538, 24 h
Bacillus subtilis [3] = assay: Antimicrobial activity against Bacillus subtilis ATCC 6633 after 24 hrs by MTT assay; format: functional; conditions: ATCC 6633, 24 h
Escherichia coli [4] = assay: Antimicrobial activity against Escherichia coli ATCC 11229 at 500 ug/mL after 24 hrs by MTT assay; format: functional, organism-based
Staphylococcus aureus [5] = assay: Antimicrobial activity against Staphylococcus aureus ATCC 6538 at 500 ug/mL after 24 hrs by MTT assay; format: functional, organism-based
Bacillus subtilis [6] = assay: Antimicrobial activity against Bacillus subtilis ATCC 6633 at 500 ug/mL after 24 hrs by MTT assay; format: functional, organism-based
[7] = Inhibition of Cu2+ induced human LDL oxidation; format: functional

Q: With `CN[C@@H]1[C@H](O[C@H]2[C@H](O[C@H]3[C@H](O)[C@@H](O)[C@H](N=C(N)N)[C@@H](O)[C@@H]3N=C(N)N)O[C@@H](C)[C@]2(O)C=O)O[C@@H](CO)[C@H](O)[C@H]1O` (stereo in doubt) [STREPTOMYCIN] as the compound, how does the MIC (Escherichia coli [1]) read?
A: Its MIC is 12.5 µg/mL (≈ 21.5 µM).

Q: What about the MIC (Staphylococcus aureus [2]) of the same compound?
A: The MIC was 12.5 µg/mL (≈ 21.5 µM).

Q: What about the MIC (Bacillus subtilis [3]) of the same compound?
A: The MIC was 12.5 µg/mL (≈ 21.5 µM).

Q: With `O=C1C=CC(O)(CC(=O)O[C@H]2[C@H](OC(=O)/C=C/c3ccc(O)c(O)c3)C[C@](O)(C(=O)O)C[C@H]2OC(=O)/C=C/c2ccc(O)c(O)c2)C=C1` as the compound, how does the Activity (Escherichia coli [4]) read?
A: The Activity was “inactive”.

Q: What about the Activity (Staphylococcus aureus [5]) of the same compound?
A: The Activity was “inactive”.

Q: And the Activity (Bacillus subtilis [6])?
A: Its Activity is “inactive”.

Q: For `O=C(/C=C/c1ccc(O)c(O)c1)O[C@@H]1C[C@](O)(C(=O)O)C[C@@H](OC(=O)/C=C/c2ccc(O)c(O)c2)[C@H]1O`, which Activity [7] is on record?
A: Its Activity is “Dose-dependent effect”.

Q: Which Activity [7] does the source give for `O=C(C=Cc1ccc(O)c(O)c1)O[C@@H]1C[C@](O)(C(=O)O)C[C@@H](O)[C@H]1O` here?
A: Its Activity is “Dose-dependent effect”.

Reference: ChEMBL document CHEMBL1141281, “Targeted natural product isolation guided by HPLC-SPE-NMR: constituents of Hubertia species” (2007)
